One compound from patent publication US20050033056A1, “Hydroxylated indole derivatives and uses thereof” (priority 2001, published 2005) can be followed below.

The test system of one data set is CYP3A4/5. In words: CYP induction in primary human hepatocytes, Western immunoblotting: CYP3A4/5. It counts as cell-based. Particulars: 10 or 50 μM for 72 hours; hepatocytes from three donors. As to the method: Upon receiving a primary culture of human hepatocytes in 6-well plates, the culture medium containing streptomycin/penicillin was refreshed (2 ml/well). […] The culture medium and testing compounds were replenished every 24 hours.
At the end of the treatment, the cells were harvested into 1 mL of phosphate-buffered saline (PBS) after washing twice. The cells were precipitated by centrifugation, and were resuspended in PBS (approximately 50 μL).
The membrane was blocked by 5% non-fat dried milk (NFDM) blotting buffer (PBS containing 0.05% Tween 20) at 4° C. overnight. […] The membrane was rinsed six times (10 minutes each time) with the blotting buffer, and exposed to 1:10,000 diluted secondary antibodies labeled with horseradish peroxidase for 1 hour at room temperature. After being extensively rinsed with the blotting buffer, the membrane was exposed to the substrate of peroxidase (enhanced chemiluminescence reagent). CYP proteins were detected by […] using an X-ray developer.
For orientation: In western blotting, separated proteins are transferred to a membrane and probed.

A further data set addresses CYP2C19 (Homo sapiens, UniProt P33261). In words: CYP inhibition in HLM: S-mephenytoin 4'-hydroxylation. In kind it is in vitro ADME. Particulars: in the presence of Compound 1, concentration-dependent. Also noted: tissue Gentest Corp. (Woburn, Mass.); host or cells: pooled human liver microsomes. On the procedure:
The incubations were carried out in test tubes (12.0×75 mm). The incubation mixtures (250 μL) contained 0.5 mg of HLM protein, 50 (CYP1A2 and CYP2E1) or 25 (CYP2C9, CYP2C19, CYP2D6 and CYP3A4) pmol of recombinant human CYPs, Compound 1 (10 or 50 μM), probe substrate (R—, S-warfarin, chlorzoxazone, S-mephenyloin, or bufuralol) at different concentrations, and 0.5 mg of NADPH in 50 mM Tris buffer containing 15 mM MgCl2 (pH 7.4). Compound 1 was added to the reaction mixture 5 minutes prior to the addition of the probe substrate. […]
The quantification was based on the calibration curves, and the quality control (QC) samples were applied to ensure the quality of the experiments. […]
4. […] MRM was applied for the quantification. […]
Data were acquired and analyzed by ChemStation (Version 6.03, Hewlett Packard, Waldbronn, Germany) for 6-, 7-, and 10-hydroxywarfarin and 6-hydroxychlorzoxazone, and MacQuan (Version 1.6, PE Biosystem, Foster City, Calif.) for 1′-hydroxybufuralol and 4′-hydroxymephenytoin. Quantification was based on peak area ratios of metabolites over the respective IS against the respective concentration of the metabolites. […] The metabolic rates were determined using Excel (Microsoft Office 97, Microsoft Corporation, Redmond, Wash.) or SigmaPlot (Version 6.00, SPSS Inc. Chicago, Ill.). […]

Structures are written as SMILES.

Sequence of CYP2C19 (P33261 whole entry): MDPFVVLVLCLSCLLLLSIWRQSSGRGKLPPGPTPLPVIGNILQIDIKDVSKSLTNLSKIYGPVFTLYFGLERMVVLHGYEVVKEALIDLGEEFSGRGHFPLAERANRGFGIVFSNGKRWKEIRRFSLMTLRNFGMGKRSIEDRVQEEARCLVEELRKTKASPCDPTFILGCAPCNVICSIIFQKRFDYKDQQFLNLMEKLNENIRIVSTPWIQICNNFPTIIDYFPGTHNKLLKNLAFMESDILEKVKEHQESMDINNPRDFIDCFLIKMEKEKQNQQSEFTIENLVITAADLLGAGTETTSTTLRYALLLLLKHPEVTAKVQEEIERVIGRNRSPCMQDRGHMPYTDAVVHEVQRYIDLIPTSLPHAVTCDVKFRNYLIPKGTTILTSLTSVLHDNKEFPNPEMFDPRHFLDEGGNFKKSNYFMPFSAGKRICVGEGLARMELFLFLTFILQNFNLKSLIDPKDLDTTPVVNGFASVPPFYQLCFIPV

With `CNC(=O)Cc1ccc2ccn(C3CCN(CCc4ccccc4F)CC3)c2c1` [Compound 1, N-methyl-[1-[1-(2-fluorophenethyl)piperidine-4-yl]-1H-indol-6-yl] acetamide], in the data set with CYP3A4/5, the “expression of CYP3A4/5 (Western immunoblotting)” value was “did not increase”. The “effect on CYP2C19-mediated S-mephenyloin 4'-hydroxylation activity (in words)” value on CYP2C19 is on record as “significantly reduced”.
